What was measured:
[1] = at 20° C.; cited from earlier work
[2] = Source text: As used herein, the term “solubility” in regard to water solubility includes cases where the sample completely dissolves in deionized water to form a homogeneous mixture, and cases where the sample is completely emulsified. As used herein, “completely” means that no mass of the sample remains in the deionized water.
[3] = Surface tension of blood containing blood modifying agent, pendant drop method (Example 6); conditions: sheep defibrinated blood; amount 0.10 mass %; 35 ° C.; without agent 62.1
Description: The surface tension of blood containing a blood modifying agent was measured by the pendant drop method, using a Drop Master500 contact angle meter by Kyowa Interface Science Co., Ltd. The surface tension was measured after adding a prescribed amount of blood modifying agent to sheep defibrinated blood, and thoroughly shaking. The measurement was accomplished automatically with a device, and the […] γ was determined by the following formula (see FIG. 4). γ=g×ρ×(de)^2×1/H The density ρ was measured at the temperatures listed in Table 5, according to JIS K 2249-1995, “Density test methods and density/mass/volume conversion tables”, “5. Vibrating density test method”. The measurement was accomplished using a DA-505 by Kyoto Electronics Co., Ltd.

Row | SMILES | Water solubility [2] [g] | further results
1 | CCCCC(=O)CCCC [5-nonanone] | – | vapor pressure [1]: about 230 Pa
2 | CC(C)CCCCCCCCCCCCCCCOC(=O)CC(O)C(=O)OCCCCCCCCCCCCCCCC(C)C (stereo not shown) [Diisostearyl malate, Diisostearyl Malate] | – | Water solubility (g) [2]: 20< g
3 | CCCCCCCCCCCCOC(=O)CCCCCCCCCCC [ELECTOL WE20, Ester of dodecanoic acid (C12) and dodecyl alcohol (C12)] | – | Surface tension (mN/m) [3]: 58.8 mN/m
4 | CCCCC(CC)C(=O)OCC(C)(C)COC(=O)C(CC)CCCC (stereo not shown) [H-208BRS, Neopentylglycol di-2-ethylhexanoate] | <0.05 | –
5 | CCCCC(CC)C(=O)OCC(COC(=O)C(CC)CCCC)OC(=O)C(CC)CCCC (stereo not shown) [PANACET 800B] | <0.05 | –
6 | CCCCCCCC(=O)OCC(COC(=O)CCCCCCC)OC(=O)CCCCCCC [PANACET 800] | <0.05 | –
7 | CCCCOC(=O)CC(CC(=O)OCCCC)(OC(C)=O)C(=O)OCCCC [Tributyl O-acetylcitrate, Tributyl O-Acetylcitrate] | <0.05 | –

Reference: patent US10543132B2, “Absorbent article with blood modifying agent” (UNICHARM CORPORATION, priority 2011, dated 2020)
